Test results: PubChem BioAssay (NCI)
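Step 1: Grow cells in 96-well plates. Step 2: Expose to compound for 48 hours at 5 concentrations. Step 3: Interpolate endpoints linearly; if unreached, use highest concentration. The concentration for full growth arrest is given as TGI.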

Legend:
Experiment in all cases: NCI tumour cell line growth inhibition, 48 h
[1] = system: EKVX NSCLC
[2] = system: CAKI-1 renal
[3] = system: ACHN renal
[4] = system: DMS 273 small cell lung
[5] = system: IGROV1 ovarian
[6] = system: KM12 colon
[7] = system: NCI-H522 lung
[8] = system: UACC-257 melanoma
[9] = system: OVCAR-8 ovarian
[10] = system: OVCAR-3 ovarian
[11] = system: TK-10 renal
[12] = system: HCC-2998 colon
[13] = system: COLO 205 colon
[14] = system: 786-0 renal
[15] = system: OVCAR-5 ovarian
[16] = system: HCT-15 colon
[17] = system: HT29 colon
[18] = system: XF 498 CNS
[19] = system: DLD-1 colon
[20] = system: OVCAR-4 ovarian
[21] = system: UACC-62 melanoma
[22] = system: SW-620 colon
[23] = system: K-562 leukemia
[24] = system: RPMI-8226 leukemia
[25] = system: SN12C renal
[26] = system: SF-539 CNS
[27] = system: MALME-3M melanoma
[28] = system: SNB-75 CNS
[29] = system: SF-295 CNS
[30] = system: U251 CNS
[31] = system: SK-MEL-2 melanoma
[32] = system: LOX IMVI melanoma
[33] = system: CCRF-CEM leukemia
[34] = system: A549 NSCLC
[35] = system: SF-268 CNS
[36] = system: DMS 114 small cell lung
[37] = system: SNB-19 CNS
[38] = system: HL-60(TB) leukemia
[39] = system: SK-OV-3 ovarian
[40] = system: LXFL 529 NSCLC
[41] = system: KM20L2 colon
[42] = system: SK-MEL-28 melanoma
[43] = system: NCI-H23 lung
[44] = system: M14 melanoma
[45] = system: MOLT-4 leukemia
[46] = system: NCI-H226 lung
[47] = system: A498 renal
[48] = system: HCT-116 colon
[49] = system: SK-MEL-5 melanoma
[50] = system: M19-MEL melanoma
[51] = system: HOP-92 NSCLC
[52] = system: UO-31 renal
[53] = system: HOP-62 NSCLC
[54] = system: T-47D breast
[55] = system: NCI-H460 lung
[56] = system: MDA-MB-231 breast
[57] = system: NCI/ADR-RES ovarian
[58] = system: BT-549 breast
[59] = system: MDA-N
[60] = system: RXF 393 renal
[61] = system: HS 578T breast
[62] = system: MCF7 breast
[63] = system: SR leukemia
[64] = system: MDA-MB-435
[65] = system: PC-3 prostate
[66] = system: DU-145 prostate
[67] = system: SNB-78 CNS
[68] = system: HOP-18 NSCLC

Measured: TGI

Cc1cc(N(CCC#N)CCC#N)ccc1/C=C1/N=C(c2ccccc2)N(N)C1=O
> 100 µM: [1] | [2] | [3] | [4] | [5] | [6] | [8] | [9] | [10] | [11] | [12] | [13] | [14] | [15] | [16] | [17] | [18] | [19] | [20] | [21] | [22] | [23] | [24] | [25] | [26] | [27] | [29] | [30] | [31] | [32] | [33] | [34] | [35] | [36] | [37] | [38] | [39] | [40] | [41] | [42] | [43] | [44] | [45] | [46] | [47] | [48] | [49] | [50] | [52] | [53]
99.9 µM: [51]
64.9 µM: [28]
92.1 µM: [7]

CSC(=S)N/N=C(\C)c1cccc(C)n1
19.5 µM: [20]
10.7 µM: [39] | [46]
> 47.3 µM: [17]
> 36.3 µM: [57]
> 13.2 µM: [62]
36.4 µM: [56]
3.67 µM: [21]
23.6 µM: [2]
3.01 µM: [7]
24.8 µM: [29]
42.6 µM: [6]
21.9 µM: [8] | [25]
> 56.9 µM: [22]
> 67.5 µM: [54]
13.8 µM: [60]
3.07 µM: [38]
57.7 µM: [58]
9.79 µM: [55]
7.34 µM: [26]
> 100 µM: [37]
16.5 µM: [31]
46.7 µM: [35]
12.8 µM: [66]
1.99 µM: [10]
> 89 µM: [61]
13.9 µM: [43] | [51]
48.1 µM: [16]
1.84 µM: [48]
33.9 µM: [11]
29.1 µM: [34]
1.6 µM: [44]
18 µM: [5]
3.48 µM: [3]
> 35.7 µM: [64]
28 µM: [14]
33.8 µM: [30]
> 90 µM: [59]
13.2 µM: [52]
63.5 µM: [42]
36.3 µM: [65]
0.102 µM: [33]
6.98 µM: [53]
13.6 µM: [28]
2.82 µM: [13]
10 µM: [27]
8.56 µM: [49]
15.1 µM: [32]
> 7.8 µM: [23]
10.5 µM: [47]
86.5 µM: [15]
> 43.3 µM: [1]
1.51 µM: [24]
> 65.6 µM: [63]
28.1 µM: [9]
30.4 µM: [12]

Nc1ccc(C(=O)NN2C(=O)C(Cl)C2c2ccccc2)cc1 (stereo not given)
> 100 µM: [1] | [2] | [3] | [4] | [5] | [55] | [6] | [7] | [8] | [9] | [10] | [11] | [12] | [13] | [14] | [15] | [16] | [17] | [18] | [19] | [20] | [21] | [22] | [23] | [24] | [25] | [26] | [27] | [28] | [29] | [30] | [31] | [32] | [33] | [34] | [35] | [36] | [37] | [39] | [67] | [40] | [41] | [42] | [43] | [44] | [45] | [46] | [47] | [48] | [49] | [50] | [51] | [52] | [53]

CC1(C)OCC(C(O)C2OC(C)(C)OC2/C=N\O)O1 (stereo not given)
> 100 µM: [1] | [3] | [4] | [5] | [55] | [6] | [7] | [8] | [9] | [10] | [11] | [12] | [13] | [14] | [15] | [17] | [18] | [19] | [22] | [23] | [24] | [26] | [27] | [28] | [29] | [30] | [60] | [31] | [32] | [33] | [68] | [34] | [35] | [36] | [37] | [38] | [39] | [67] | [40] | [41] | [42] | [43] | [45] | [47] | [48] | [49] | [50] | [51] | [52] | [53]
